{"source": "PubChem BioAssay AID330", "about": "(DTP/NCI, 2004)", "test_system": "P388 leukemia ip, CD2F1 mice, survival T/C", "assay": "NCI In Vivo Anticancer Drug Screen. Data for tumor model P388 Leukemia (intraperitoneal) in CD2F1 (CDF1) mice", "details": "endpoint: median survival time, higher = longer survival", "procedure,_shortened": "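Mice carrying the transplanted tumor received test compound or vehicle. Survival was recorded in each group, and the value is the treated-group measurement divided by that of the vehicle-treated control group.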", "key": {"[1]": {"details": "dose: 50.0 mg/kg/injection, schedule: Q01DX005 (ip), vehicle: saline"}, "[2]": {"details": "dose: 100.0 mg/kg/injection, schedule: Q01DX005 (ip), vehicle: saline"}, "[3]": {"details": "dose: 200.0 mg/kg/injection, schedule: Q01DX005 (ip), vehicle: saline"}, "[4]": {"details": "dose: 50.0 mg/kg/injection, schedule: Q01DX005 (ip), vehicle: saline with Tween-80"}, "[5]": {"details": "dose: 100.0 mg/kg/injection, schedule: Q01DX005 (ip), vehicle: saline with Tween-80"}, "[6]": {"details": "dose: 200.0 mg/kg/injection, schedule: Q01DX005 (ip), vehicle: saline with Tween-80"}, "[7]": {"details": "dose: 50.0 mg/kg/injection, schedule: Q01DX009 (ip), vehicle: Klucel (hydroxypropylcellulose) (HPC)"}, "[8]": {"details": "dose: 200.0 mg/kg/injection, schedule: Q01DX009 (ip), vehicle: Klucel (hydroxypropylcellulose) (HPC)"}}, "note": "Where “and” joins values, the source holds several entries; their conditions need not be identical. Equal entries are not always repeated. Inconclusive results and toxic doses are left out. Peptide text beside a SMILES is read from it."}
{"smiles": "CN(C)C(=S)Oc1cc(-c2c(OC(=S)N(C)C)ccc3ccccc23)c2ccccc2c1", "values": [{"measurement": "T/C", "setting": "dose: 100.0 mg/kg/injection, schedule: Q04DX002 (ip), vehicle: saline with Tween-80", "value": "105 % of control"}, {"measurement": "T/C", "setting": "dose: 200.0 mg/kg/injection, schedule: Q04DX002 (ip), vehicle: saline with Tween-80", "value": "102 % of control"}, {"measurement": "T/C", "setting": "dose: 400.0 mg/kg/injection, schedule: Q04DX002 (ip), vehicle: saline with Tween-80", "value": "96 % of control"}]}
{"smiles": "O=C(O)C(=O)O.[NH2-].[NH2-].[NH2-].[NH2-].[Ru+4]", "values": [{"measurement": "T/C", "setting": "dose: 3.13 mg/kg/injection, schedule: Q04DX003 (ip), vehicle: water", "value": "110 % of control"}, {"measurement": "T/C", "setting": "dose: 25.0 mg/kg/injection, schedule: Q04DX003 (ip), vehicle: water", "value": "98 % of control"}]}
{"smiles": "NCC(=O)NCC(=O)O", "note": "(H-Gly-Gly-OH)", "values": [{"measurement": "T/C", "setting": "[1]", "value": "100 % of control"}, {"measurement": "T/C", "setting": "[2]", "value": "104 % of control"}, {"measurement": "T/C", "setting": "[3]", "value": "100 % of control"}]}
{"smiles": "CCOC(=O)c1c[nH]c2c(ccc3cccnc32)c1=O", "values": [{"measurement": "T/C", "setting": "dose: 15.0 mg/kg/injection, schedule: Q01DX005 (ip), vehicle: Klucel (hydroxypropylcellulose) (HPC)", "value": "99 % of control"}, {"measurement": "T/C", "setting": "dose: 30.0 mg/kg/injection, schedule: Q01DX005 (ip), vehicle: Klucel (hydroxypropylcellulose) (HPC)", "value": "99 % of control"}, {"measurement": "T/C", "setting": "dose: 50.0 mg/kg/injection, schedule: Q01DX009 (ip), vehicle: saline", "value": "99 % of control"}, {"measurement": "T/C", "setting": "dose: 60.0 mg/kg/injection, schedule: Q01DX005 (ip), vehicle: Klucel (hydroxypropylcellulose) (HPC)", "value": "99 % of control and 97 % of control"}, {"measurement": "T/C", "setting": "dose: 100.0 mg/kg/injection, schedule: Q01DX009 (ip), vehicle: saline", "value": "117 % of control"}, {"measurement": "T/C", "setting": "dose: 200.0 mg/kg/injection, schedule: Q01DX009 (ip), vehicle: saline", "value": "99 % of control"}]}
{"smiles": "COc1c(C=O)c2c(c(C=O)c1OC)OCO2", "values": [{"measurement": "T/C", "setting": "[4]", "value": "100 % of control"}, {"measurement": "T/C", "setting": "[5]", "value": "104 % of control"}, {"measurement": "T/C", "setting": "[6]", "value": "99 % of control"}]}
{"smiles": "O=C(CBr)N1c2ccccc2S(=O)(=O)c2ccc3ccccc3c21", "values": [{"measurement": "T/C", "setting": "[7]", "value": "116 % of control and 122 % of control"}, {"measurement": "T/C", "setting": "[8]", "value": "119 % of control"}]}
{"smiles": "CC1(C)CC(O)(Cc2ccccc2)C(=O)c2ccccc21", "note": "(configuration not stated)", "values": [{"measurement": "T/C", "setting": "dose: 25.0 mg/kg/injection, schedule: Q01DX009 (ip), vehicle: Klucel (hydroxypropylcellulose) (HPC)", "value": "96 % of control"}, {"measurement": "T/C", "setting": "[7]", "value": "95 % of control"}, {"measurement": "T/C", "setting": "dose: 100.0 mg/kg/injection, schedule: Q01DX009 (ip), vehicle: Klucel (hydroxypropylcellulose) (HPC)", "value": "98 % of control"}, {"measurement": "T/C", "setting": "[8]", "value": "98 % of control"}, {"measurement": "T/C", "setting": "dose: 400.0 mg/kg/injection, schedule: Q01DX009 (ip), vehicle: Klucel (hydroxypropylcellulose) (HPC)", "value": "86 % of control"}]}
{"smiles": "C/C=C/Cc1nnc(C)c2c(C)[nH]nc12", "values": [{"measurement": "T/C", "setting": "dose: 50.0 mg/kg/injection, schedule: Q01DX009 (ip), vehicle: saline with Tween-80", "value": "100 % of control"}, {"measurement": "T/C", "setting": "dose: 100.0 mg/kg/injection, schedule: Q01DX009 (ip), vehicle: saline with Tween-80", "value": "96 % of control"}, {"measurement": "T/C", "setting": "dose: 200.0 mg/kg/injection, schedule: Q01DX009 (ip), vehicle: saline with Tween-80", "value": "102 % of control"}]}
{"smiles": "c1ccc(CN2COC3CCCCC32)cc1", "note": "(configuration not stated)", "values": [{"measurement": "T/C", "setting": "dose: 25.0 mg/kg/injection, schedule: Q01DX005 (ip), vehicle: saline", "value": "107 % of control and 108 % of control"}, {"measurement": "T/C", "setting": "[1]", "value": "101 % of control and 105 % of control and 119 % of control"}, {"measurement": "T/C", "setting": "[2]", "value": "101 % of control and 107 % of control and 121 % of control"}, {"measurement": "T/C", "setting": "[3]", "value": "103 % of control and 105 % of control"}]}
{"smiles": "O=c1cc(C(F)(F)F)c2cc3c4c(c2o1)CCCN4CCC3", "values": [{"measurement": "T/C", "setting": "dose: 50.0 mg/kg/injection, schedule: Q01DX005 (ip), vehicle: Klucel (hydroxypropylcellulose) (HPC)", "value": "106 % of control"}, {"measurement": "T/C", "setting": "dose: 100.0 mg/kg/injection, schedule: Q01DX005 (ip), vehicle: Klucel (hydroxypropylcellulose) (HPC)", "value": "100 % of control"}, {"measurement": "T/C", "setting": "dose: 200.0 mg/kg/injection, schedule: Q01DX005 (ip), vehicle: Klucel (hydroxypropylcellulose) (HPC)", "value": "99 % of control"}]}
{"smiles": "Cc1cc(NCCCCCCNc2cc(C)nc3cc(N)ccc23)c2ccc(N)cc2n1", "values": [{"measurement": "T/C", "setting": "dose: 25.0 mg/kg/injection, schedule: Q01DX009 (ip), vehicle: other", "value": "150 % of control and 158 % of control"}]}
{"smiles": "COC(CNCc1ccccc1)OC", "values": [{"measurement": "T/C", "setting": "dose: 37.5 mg/kg/injection, schedule: Q04DX003 (ip), vehicle: saline", "value": "98 % of control"}, {"measurement": "T/C", "setting": "dose: 75.0 mg/kg/injection, schedule: Q04DX003 (ip), vehicle: saline", "value": "104 % of control"}, {"measurement": "T/C", "setting": "dose: 150.0 mg/kg/injection, schedule: Q04DX003 (ip), vehicle: saline", "value": "95 % of control"}, {"measurement": "T/C", "setting": "dose: 300.0 mg/kg/injection, schedule: Q04DX003 (ip), vehicle: saline", "value": "98 % of control"}]}
{"smiles": "CCNC(=O)N(CC(N)=O)c1ncc([N+](=O)[O-])s1", "values": [{"measurement": "T/C", "setting": "dose: 6.25 mg/kg/injection, schedule: Q01DX001 (ip), vehicle: saline", "value": "105 % of control"}, {"measurement": "T/C", "setting": "dose: 12.5 mg/kg/injection, schedule: Q01DX001 (ip), vehicle: saline", "value": "103 % of control"}, {"measurement": "T/C", "setting": "dose: 25.0 mg/kg/injection, schedule: Q01DX001 (ip), vehicle: saline", "value": "104 % of control"}, {"measurement": "T/C", "setting": "dose: 50.0 mg/kg/injection, schedule: Q01DX001 (ip), vehicle: saline", "value": "100 % of control and 103 % of control"}, {"measurement": "T/C", "setting": "dose: 100.0 mg/kg/injection, schedule: Q01DX001 (ip), vehicle: saline", "value": "106 % of control and 97 % of control"}]}
{"smiles": "Nc1ccccc1C(=O)CCc1ccccc1C(=O)O", "values": [{"measurement": "T/C", "setting": "[4]", "value": "96 % of control"}, {"measurement": "T/C", "setting": "[5]", "value": "99 % of control"}, {"measurement": "T/C", "setting": "[6]", "value": "96 % of control"}]}
